Source: PubChem BioAssay (NCI)
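Assay format: 96-well plates, 48-hour exposure. TGI: concentration producing complete growth inhibition.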

Columns and labels:
Experiment in all cases: DTP human tumour cell line panel, 48 h
[1] = tested on: 786-0 renal
[2] = tested on: A498 renal
[3] = tested on: A549 NSCLC
[4] = tested on: ACHN renal
[5] = tested on: BT-549 breast
[6] = tested on: CAKI-1 renal
[7] = tested on: CCRF-CEM leukemia
[8] = tested on: COLO 205 colon
[9] = tested on: DU-145 prostate
[10] = tested on: EKVX NSCLC
[11] = tested on: HCC-2998 colon
[12] = tested on: HCT-116 colon
[13] = tested on: HCT-15 colon
[14] = tested on: HL-60(TB) leukemia
[15] = tested on: HOP-62 NSCLC
[16] = tested on: HOP-92 NSCLC
[17] = tested on: HS 578T breast
[18] = tested on: HT29 colon
[19] = tested on: IGROV1 ovarian
[20] = tested on: K-562 leukemia
[21] = tested on: KM12 colon
[22] = tested on: LOX IMVI melanoma
[23] = tested on: M14 melanoma
[24] = tested on: MALME-3M melanoma
[25] = tested on: MCF7 breast
[26] = tested on: MDA-MB-231 breast
[27] = tested on: MDA-MB-435
[28] = tested on: MDA-N
[29] = tested on: MOLT-4 leukemia
[30] = tested on: NCI-H226 lung
[31] = tested on: NCI-H23 lung
[32] = tested on: NCI-H460 lung
[33] = tested on: NCI-H522 lung
[34] = tested on: NCI/ADR-RES ovarian
[35] = tested on: OVCAR-3 ovarian
[36] = tested on: OVCAR-4 ovarian
[37] = tested on: OVCAR-5 ovarian
[38] = tested on: OVCAR-8 ovarian
[39] = tested on: PC-3 prostate
[40] = tested on: RPMI-8226 leukemia
[41] = tested on: RXF 393 renal
[42] = tested on: SF-268 CNS
[43] = tested on: SF-295 CNS
[44] = tested on: SF-539 CNS
[45] = tested on: SK-MEL-2 melanoma
[46] = tested on: SK-MEL-28 melanoma
[47] = tested on: SK-MEL-5 melanoma
[48] = tested on: SK-OV-3 ovarian
[49] = tested on: SN12C renal
[50] = tested on: SNB-19 CNS
[51] = tested on: SNB-75 CNS
[52] = tested on: SR leukemia
[53] = tested on: SW-620 colon
[54] = tested on: T-47D breast
[55] = tested on: TK-10 renal
[56] = tested on: U251 CNS
[57] = tested on: UACC-62 melanoma
[58] = tested on: UO-31 renal
[59] = tested on: UACC-257 melanoma

CCCCCCCCCCCCCCCCNc1ccn(C2CC(O)C(COC(c3ccccc3)(c3ccccc3)c3ccc(OC)cc3)O2)c(=O)n1 (configuration not stated)
TGI [1]: > 100 µM | TGI [2]: > 100 µM | TGI [3]: > 100 µM | TGI [4]: > 100 µM | TGI [5]: > 100 µM | TGI [6]: > 100 µM | TGI [7]: > 100 µM | TGI [8]: > 100 µM | TGI [9]: > 100 µM | TGI [10]: > 100 µM | TGI [11]: > 100 µM | TGI [12]: > 100 µM | TGI [13]: > 100 µM | TGI [14]: > 100 µM | TGI [15]: > 100 µM | TGI [16]: > 100 µM | TGI [17]: > 100 µM | TGI [18]: > 100 µM | TGI [19]: > 100 µM | TGI [20]: > 100 µM | TGI [21]: > 100 µM | TGI [22]: > 100 µM | TGI [23]: > 100 µM | TGI [24]: > 100 µM | TGI [25]: > 100 µM | TGI [26]: > 100 µM | TGI [27]: > 100 µM | TGI [28]: > 100 µM | TGI [29]: > 100 µM | TGI [30]: > 100 µM | TGI [31]: > 100 µM | TGI [32]: > 100 µM | TGI [33]: > 100 µM | TGI [34]: > 100 µM | TGI [35]: > 100 µM | TGI [36]: > 100 µM | TGI [37]: > 100 µM | TGI [38]: > 100 µM | TGI [39]: > 100 µM | TGI [40]: > 100 µM | TGI [41]: > 100 µM | TGI [42]: > 100 µM | TGI [43]: > 100 µM | TGI [44]: > 100 µM | TGI [45]: > 100 µM | TGI [46]: > 100 µM | TGI [47]: > 100 µM | TGI [48]: > 100 µM | TGI [49]: > 100 µM | TGI [50]: > 100 µM | TGI [51]: > 100 µM | TGI [52]: > 100 µM | TGI [53]: > 100 µM | TGI [54]: > 100 µM | TGI [55]: > 100 µM | TGI [56]: > 100 µM | TGI [57]: > 100 µM | TGI [58]: 53.8 µM

CCOC(=O)/C=C(\C(=O)OCC)n1cc(C)c(=O)n(Cc2cnnn2COCCOC(C)=O)c1=O
TGI [1]: 14.9 µM | TGI [2]: 35.9 µM | TGI [3]: 47.1 µM | TGI [4]: 7.46 µM | TGI [5]: 16.3 µM | TGI [6]: 8.06 µM | TGI [7]: 5.57 µM | TGI [8]: 4.33 µM | TGI [9]: 48 µM | TGI [10]: 24.6 µM | TGI [11]: 30.7 µM | TGI [12]: 22.2 µM | TGI [13]: 12 µM | TGI [14]: 12.7 µM | TGI [15]: 55.6 µM | TGI [16]: 4.27 µM | TGI [17]: 46.8 µM | TGI [18]: 21.2 µM | TGI [19]: 21.8 µM | TGI [20]: 19.2 µM | TGI [21]: 31.8 µM | TGI [22]: 21 µM | TGI [23]: 57.5 µM | TGI [24]: 3.42 µM | TGI [25]: 24.5 µM | TGI [26]: 42.7 µM | TGI [27]: 28.1 µM | TGI [28]: 44 µM | TGI [29]: 8.7 µM | TGI [30]: 35 µM | TGI [31]: 34.2 µM | TGI [32]: 35.6 µM | TGI [33]: 2.91 µM | TGI [34]: 43.7 µM | TGI [35]: 26 µM | TGI [36]: 32 µM | TGI [37]: 43.8 µM | TGI [38]: 20.6 µM | TGI [39]: > 59.2 µM | TGI [40]: 18.5 µM | TGI [41]: 13.2 µM | TGI [42]: 38.5 µM | TGI [43]: 69.3 µM | TGI [44]: 6.89 µM | TGI [45]: 41.7 µM | TGI [46]: 31.5 µM | TGI [47]: > 51.6 µM | TGI [48]: > 100 µM | TGI [49]: 36.2 µM | TGI [50]: > 61.8 µM | TGI [51]: 39.9 µM | TGI [52]: > 34.7 µM | TGI [53]: 9.92 µM | TGI [54]: 28.9 µM | TGI [55]: 10.8 µM | TGI [56]: 43.6 µM | TGI [59]: 26.3 µM | TGI [57]: 31.1 µM | TGI [58]: 27.5 µM
